In patent US7335644B2, “Anti-hypertensive molecules and process for preparation thereof” (Council of Scientific and Industrial Research, priority 2003, dated 2008):

Tested on: arterial blood pressure of hypertensive Wistar rats
Conditions: 1 mg/kg

C[C@H](CS)C(=O)N1CCC[C@H]1C(=O)O [captopril]
fall of blood pressure (reference inhibitor): 60 mm Hg
time during which still quite effective in blocking angiotensin-converting enzyme (reference inhibitor): ≥ 180 min
time for blood pressure to return to baseline (reference inhibitor (not shown)): 240 min
